Results as given in ChEMBL document CHEMBL1201862, “PubChem BioAssay data set” (2004).
“And” between values parts separate entries of the source, which are not always exact repeats. Equal values may be shown once. The source made the active and inactive calls.

Columns and labels:
[1] = biological target: Nucleotide-binding oligomerization domain-containing protein 1 (Homo sapiens, UniProt Q9Y239); test: NOD1 signaling inhibitors, SAR follow-up, revised (AID 2333); type: functional
HEK293 [2] = test: cells; settings: Homo sapiens
Tumor necrosis factor = Tumor necrosis factor (Homo sapiens, UniProt P01375); test: TNFa-triggered NF-kB activation inhibitors, SAR follow-up, cell-based, revised (AID 2337); type: functional
Cytochrome P450 2C9 = Cytochrome P450 2C9 (Homo sapiens, UniProt P11712)
[3] = biological target: Alkaline phosphatase, placental type (Homo sapiens, UniProt P05187); test: PLAP enzyme inhibitors, confirmation, biochemical, luminescence (AID 1512); type: functional
SUMO-activating enzyme [4] = biological target: T1, SUMO-activating enzyme (Homo sapiens, UniProt Q9UBT2); test: inhibitors of in vitro SUMOylation cascade, primary screen, biochemical, HTRF, uHTS (AID 2006); type: protein-complex assay
SUMO-activating enzyme [5] = biological target: T1, SUMO-activating enzyme; test: SUMOylation inhibitor hit validation, confirmation, SUMOylation inhibitor project, biochemical, AlphaScreen (AID 2018); type: functional
[6] = THP-1 cell cytotoxicity, dose response, cytotoxicity control for non-replicating M. tuberculosis project (AID 489025); type: functional
[7] = system: Streptococcus sp. 'group A'; test: growth inhibition of control SK(-) GAS strain, dose response, counter-screen for streptokinase expression inhibitor project, luminescence, kanamycin, BacTiterGlo, confirmation (AID 1900); type: functional, organism-based
[8] = LGR2 antagonists, dose response, cell-based, HEK293, CRE-luciferase reporter, cherry pick, set 2 (AID 743343); type: functional;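 further: transfected cells were stimulated with diluted bursicon conditioned medium after compound addition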
[9] = Luminescence Cell-Based Dose Confirmation HTS to Identify Inhibitors of Platelet Dense Granule Release. [Related pubchem assays: 1663 (Primary HTS), 1678 (Summary of Project)]; type: functional
cells = type: functional
[10] = Vero E6 cell cytotoxicity, dose response, cytotoxicity control for non-replicating M. tuberculosis project, secondary assay (AID 492998); type: functional, VeroE6; settings: Vero C1008
Beta-galactosidase = Beta-galactosidase (Escherichia coli, UniProt Q8VNN2); type: functional
[11] = HepG2 cell cytotoxicity, dose response, cytotoxicity control, plate reader, cherry-pick, antagonist series (AID 743416); type: functional, cell-based
[12] = MC4R antagonists, dose response, counter-screen for LGR2 antagonist project, cell-based, plate reader, cherry pick (AID 743444); type: functional;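 further: transfected HEK 293 cells stimulated with alpha-MSH peptide; potency of inhibitors of the alpha-MSH evoked signal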
Streptococcus = test: Group A Streptococcus viability loss, dose response, counter-screen for streptokinase expression inhibitor project, luminescence, BacTiterGlo (AID 1915); type: functional, organism-based;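 further: potency for reduction of bacterial viability or growth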
[13] = biological target: T2, Kappa-type opioid receptor (Homo sapiens, UniProt P41145); type: functional
[14] = biological target: Luciferin 4-monooxygenase (Photinus pyralis, UniProt P08659); test: firefly luciferase enzyme inhibitors, dose response, biochemical, luminescence (AID 1891)
INS1 = test: beta cell apoptosis inhibitors, cytokine rescue, dose response, luminescence, retest (AID 449756); type: functional, cell-based; settings: Rattus norvegicus;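 further: cell death triggered by IL-1 beta plus TNF-alpha plus IFN-gamma mixture; protective hits raise ATP signal compared with cytokine alone wells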
Vero = test: cells; type: functional; settings: Chlorocebus sabaeus
[15] = biological target: T2, Kappa-type opioid receptor; type: functional; remark: listed apart in the source
[16] = HepG2 cell cytotoxicity, dose response, cytotoxicity control for non-replicating M. tuberculosis project (AID 489018); type: functional; settings: Mycobacterium tuberculosis
[17] = A549 cell cytotoxicity, dose response, cytotoxicity control, plate reader, cherry-pick, antagonist series (AID 743412); type: functional, cell-based
[18] = HEK293 cell cytotoxicity, dose response, cytotoxicity control, plate reader, cherry-picked samples (AID 743446); type: functional, cell-based
HEK293 [19] = test: cells; type: functional, cell-based; settings: Homo sapiens
HEK293 [20] = test: NOD1 signaling inhibitors, primary screen, cell-based, luminescence, uHTS (AID 1578); type: functional; settings: Homo sapiens
HEK293 [21] = test: cells; type: functional, cell-based; settings: Homo sapiens; remark: listed apart in the source
HEK293 [22] = test: NOD2 signaling inhibitors in MDP-stimulated cells, cell-based, uHTS, luminescence (AID 2001); type: functional; settings: Homo sapiens
HeLa = test: HeLa cell cytotoxicity, dose response, cytotoxicity control, 24 h, cherry-picked samples (AID 504726); type: functional, cell-based; settings: Homo sapiens;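 further: potency for cytotoxicity as loss of luminescence signal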
[23] = biological target: Glyceraldehyde-3-phosphate dehydrogenase (Homo sapiens, UniProt P04406)
Nonstructural protein 1 = Nonstructural protein 1 (Influenza A virus, UniProt Q194T2); type: functional, Influenza A virus (A/California/07/2009(H1N1))
[24] = biological target: G-protein coupled receptor 55 (Homo sapiens, UniProt Q9Y2T6); test: GPR55 antagonists blocking LPI-driven arrestin recruitment, primary screen, imaging, U2OS, beta-arrestin-GFP, LPI agonist (AID 2013); type: functional;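 further: antagonist potency measured as reduced agonist-driven arrestin aggregation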
G-protein coupled receptor 55, sequence (Q9Y2T6 whole entry): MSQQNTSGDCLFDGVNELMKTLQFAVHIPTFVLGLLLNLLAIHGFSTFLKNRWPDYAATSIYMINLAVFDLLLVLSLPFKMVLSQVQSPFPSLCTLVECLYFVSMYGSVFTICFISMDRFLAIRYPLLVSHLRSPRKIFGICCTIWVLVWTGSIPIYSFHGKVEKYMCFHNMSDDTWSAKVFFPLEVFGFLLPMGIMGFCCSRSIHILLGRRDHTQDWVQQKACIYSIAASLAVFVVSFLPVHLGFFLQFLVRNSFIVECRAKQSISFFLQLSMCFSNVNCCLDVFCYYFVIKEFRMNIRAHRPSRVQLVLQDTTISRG

Nucleotide-binding oligomerization domain-containing protein 1, sequence (Q9Y239 whole entry, the tested form may be a part): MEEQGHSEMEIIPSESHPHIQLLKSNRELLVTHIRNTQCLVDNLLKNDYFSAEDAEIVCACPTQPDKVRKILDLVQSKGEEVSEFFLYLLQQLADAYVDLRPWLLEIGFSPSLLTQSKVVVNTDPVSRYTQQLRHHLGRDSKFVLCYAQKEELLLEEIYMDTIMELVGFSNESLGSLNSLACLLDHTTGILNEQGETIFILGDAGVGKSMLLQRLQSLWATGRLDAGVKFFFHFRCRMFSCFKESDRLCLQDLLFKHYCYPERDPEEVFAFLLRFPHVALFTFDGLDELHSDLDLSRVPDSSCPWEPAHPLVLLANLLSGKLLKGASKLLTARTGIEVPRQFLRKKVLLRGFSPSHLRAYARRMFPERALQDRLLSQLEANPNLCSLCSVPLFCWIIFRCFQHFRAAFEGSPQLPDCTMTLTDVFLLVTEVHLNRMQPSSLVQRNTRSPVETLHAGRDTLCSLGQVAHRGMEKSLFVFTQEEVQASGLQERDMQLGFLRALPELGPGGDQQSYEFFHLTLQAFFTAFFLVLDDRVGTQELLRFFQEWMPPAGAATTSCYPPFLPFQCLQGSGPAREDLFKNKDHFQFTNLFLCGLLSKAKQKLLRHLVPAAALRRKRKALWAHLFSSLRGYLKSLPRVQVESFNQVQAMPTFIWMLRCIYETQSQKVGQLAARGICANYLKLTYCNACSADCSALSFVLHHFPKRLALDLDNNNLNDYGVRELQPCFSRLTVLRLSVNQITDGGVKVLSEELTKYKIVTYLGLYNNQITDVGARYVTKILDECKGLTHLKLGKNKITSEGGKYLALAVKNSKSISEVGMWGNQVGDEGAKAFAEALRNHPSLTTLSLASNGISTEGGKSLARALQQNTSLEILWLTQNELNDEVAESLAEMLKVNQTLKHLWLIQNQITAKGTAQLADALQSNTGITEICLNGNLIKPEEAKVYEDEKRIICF
Tumor necrosis factor, sequence (P01375 whole entry): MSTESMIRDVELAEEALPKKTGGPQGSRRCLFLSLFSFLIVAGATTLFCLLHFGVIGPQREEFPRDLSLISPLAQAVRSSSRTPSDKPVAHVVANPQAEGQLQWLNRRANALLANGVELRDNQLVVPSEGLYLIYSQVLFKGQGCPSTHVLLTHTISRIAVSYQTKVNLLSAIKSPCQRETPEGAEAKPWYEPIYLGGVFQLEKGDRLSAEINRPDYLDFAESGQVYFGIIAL
T1 sequence (Q9UBE0 whole entry): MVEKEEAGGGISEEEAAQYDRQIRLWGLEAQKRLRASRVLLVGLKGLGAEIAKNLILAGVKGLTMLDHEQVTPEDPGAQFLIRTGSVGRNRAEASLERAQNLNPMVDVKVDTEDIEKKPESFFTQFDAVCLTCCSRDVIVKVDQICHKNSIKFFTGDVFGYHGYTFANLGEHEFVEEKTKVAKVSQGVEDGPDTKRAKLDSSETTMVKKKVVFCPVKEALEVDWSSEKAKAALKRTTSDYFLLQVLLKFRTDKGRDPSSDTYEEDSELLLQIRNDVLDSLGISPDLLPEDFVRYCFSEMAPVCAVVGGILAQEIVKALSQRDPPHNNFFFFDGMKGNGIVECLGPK
T1 sequence (Q9UBT2 whole entry): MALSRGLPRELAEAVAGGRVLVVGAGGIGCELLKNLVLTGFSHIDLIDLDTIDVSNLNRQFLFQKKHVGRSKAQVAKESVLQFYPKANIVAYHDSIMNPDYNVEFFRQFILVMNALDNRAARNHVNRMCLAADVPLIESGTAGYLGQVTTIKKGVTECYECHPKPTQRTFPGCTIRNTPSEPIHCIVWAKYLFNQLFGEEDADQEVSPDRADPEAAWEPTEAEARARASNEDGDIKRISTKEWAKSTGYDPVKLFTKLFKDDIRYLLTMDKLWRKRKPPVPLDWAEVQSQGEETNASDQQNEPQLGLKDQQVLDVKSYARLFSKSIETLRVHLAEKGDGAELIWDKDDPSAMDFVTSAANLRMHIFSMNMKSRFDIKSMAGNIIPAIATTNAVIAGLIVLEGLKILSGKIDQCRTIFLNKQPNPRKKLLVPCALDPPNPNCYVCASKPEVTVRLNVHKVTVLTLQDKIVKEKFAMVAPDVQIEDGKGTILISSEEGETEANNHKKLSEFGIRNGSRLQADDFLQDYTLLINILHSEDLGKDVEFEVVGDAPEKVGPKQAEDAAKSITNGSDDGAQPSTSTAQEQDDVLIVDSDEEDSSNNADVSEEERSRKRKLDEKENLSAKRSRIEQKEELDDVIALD
Alkaline phosphatase, placental type, sequence (P05187 whole entry): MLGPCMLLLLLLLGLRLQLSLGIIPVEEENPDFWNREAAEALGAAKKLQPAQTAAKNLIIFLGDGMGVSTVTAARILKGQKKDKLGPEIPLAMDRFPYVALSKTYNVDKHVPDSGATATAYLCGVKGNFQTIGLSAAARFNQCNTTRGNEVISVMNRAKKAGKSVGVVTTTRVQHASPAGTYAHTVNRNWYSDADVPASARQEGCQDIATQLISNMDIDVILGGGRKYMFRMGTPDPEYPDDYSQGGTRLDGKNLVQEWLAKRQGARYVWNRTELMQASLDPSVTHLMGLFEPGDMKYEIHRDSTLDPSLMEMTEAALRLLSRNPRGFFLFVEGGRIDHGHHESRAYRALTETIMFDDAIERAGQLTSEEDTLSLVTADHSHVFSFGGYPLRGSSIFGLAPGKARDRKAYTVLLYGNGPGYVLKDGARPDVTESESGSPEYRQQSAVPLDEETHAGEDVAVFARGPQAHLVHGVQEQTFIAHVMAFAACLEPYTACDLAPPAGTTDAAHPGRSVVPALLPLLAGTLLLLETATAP
Nonstructural protein 1, sequence (Q194T2 whole entry): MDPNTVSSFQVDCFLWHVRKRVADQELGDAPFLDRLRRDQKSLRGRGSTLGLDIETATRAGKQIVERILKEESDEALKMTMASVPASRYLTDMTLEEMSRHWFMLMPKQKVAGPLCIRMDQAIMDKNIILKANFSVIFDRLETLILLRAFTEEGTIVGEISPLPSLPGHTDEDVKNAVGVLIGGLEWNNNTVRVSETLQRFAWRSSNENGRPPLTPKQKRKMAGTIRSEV
T2 sequence (P41145 whole entry): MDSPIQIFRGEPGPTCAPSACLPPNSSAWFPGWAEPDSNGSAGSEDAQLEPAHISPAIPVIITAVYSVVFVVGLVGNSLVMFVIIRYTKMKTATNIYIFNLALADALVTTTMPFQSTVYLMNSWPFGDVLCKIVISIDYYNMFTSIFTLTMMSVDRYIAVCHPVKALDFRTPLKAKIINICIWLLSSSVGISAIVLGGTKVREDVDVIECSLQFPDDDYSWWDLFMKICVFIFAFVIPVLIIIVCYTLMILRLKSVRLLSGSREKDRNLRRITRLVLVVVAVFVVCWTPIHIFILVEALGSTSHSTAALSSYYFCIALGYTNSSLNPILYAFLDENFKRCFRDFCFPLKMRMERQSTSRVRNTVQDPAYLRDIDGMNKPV
Glyceraldehyde-3-phosphate dehydrogenase, sequence (P04406 whole entry): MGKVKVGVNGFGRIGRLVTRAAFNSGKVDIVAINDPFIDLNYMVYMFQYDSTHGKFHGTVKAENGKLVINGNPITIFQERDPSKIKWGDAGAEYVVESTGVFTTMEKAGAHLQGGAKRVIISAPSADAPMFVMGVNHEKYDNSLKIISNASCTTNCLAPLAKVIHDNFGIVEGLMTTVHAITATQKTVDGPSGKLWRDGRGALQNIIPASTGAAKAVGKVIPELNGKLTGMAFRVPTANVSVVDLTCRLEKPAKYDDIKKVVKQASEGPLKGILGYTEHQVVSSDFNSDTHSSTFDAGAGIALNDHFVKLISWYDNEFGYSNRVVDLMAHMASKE
Beta-galactosidase, sequence (Q8VNN2 whole entry): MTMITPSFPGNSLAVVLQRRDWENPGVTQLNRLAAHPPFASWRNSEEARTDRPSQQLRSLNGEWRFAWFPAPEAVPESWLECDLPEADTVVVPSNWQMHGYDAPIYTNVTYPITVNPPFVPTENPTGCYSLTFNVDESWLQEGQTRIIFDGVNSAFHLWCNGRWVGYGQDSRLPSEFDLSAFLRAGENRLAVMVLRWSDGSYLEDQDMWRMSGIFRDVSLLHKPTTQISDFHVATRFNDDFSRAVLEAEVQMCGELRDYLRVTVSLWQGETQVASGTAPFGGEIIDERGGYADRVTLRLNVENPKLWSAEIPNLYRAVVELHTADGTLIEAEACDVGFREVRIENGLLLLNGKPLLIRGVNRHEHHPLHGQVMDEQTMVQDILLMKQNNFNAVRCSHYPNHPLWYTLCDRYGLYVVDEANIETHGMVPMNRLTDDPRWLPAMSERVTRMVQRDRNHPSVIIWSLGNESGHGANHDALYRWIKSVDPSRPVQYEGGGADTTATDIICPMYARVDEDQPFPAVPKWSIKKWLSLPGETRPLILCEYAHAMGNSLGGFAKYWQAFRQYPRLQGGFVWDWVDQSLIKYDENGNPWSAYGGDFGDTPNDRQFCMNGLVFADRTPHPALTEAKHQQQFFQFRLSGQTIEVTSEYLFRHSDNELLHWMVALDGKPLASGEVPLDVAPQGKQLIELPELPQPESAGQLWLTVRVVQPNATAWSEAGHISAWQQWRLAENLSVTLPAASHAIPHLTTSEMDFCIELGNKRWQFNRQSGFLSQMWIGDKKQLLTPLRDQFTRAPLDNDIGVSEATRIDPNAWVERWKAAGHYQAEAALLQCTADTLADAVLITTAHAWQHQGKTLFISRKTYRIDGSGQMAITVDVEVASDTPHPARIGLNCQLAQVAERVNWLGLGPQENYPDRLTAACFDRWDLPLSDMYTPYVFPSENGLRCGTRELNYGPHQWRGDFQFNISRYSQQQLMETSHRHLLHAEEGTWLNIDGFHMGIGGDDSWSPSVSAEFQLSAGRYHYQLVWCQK

**Q.** What does the source list for `Cc1ccc2c(c1)sc(-c1ccc(N(C)C)cc1)[n+]2C`?
**A.** IC50 [1]: 556 nM (active); IC50 (HEK293 [2]): 7.77 µM (active); IC50 (Tumor necrosis factor): 762 nM (active)

**Q.** Which results are given for `O=C(CCc1ccccc1)Nc1nnc[nH]1`?
**A.** AC50 (Cytochrome P450 2C9): 39.8 µM (inconclusive); IC50 [3]: > 100 µM (inactive)

**Q.** Which IC50 (SUMO-activating enzyme [4]) does the source give for `Sc1nnc(-c2cc(-c3ccccc3)[nH]n2)n1/N=C/c1c(Cl)cccc1Cl` here?
**A.** Its IC50 is 16.6 µM (active).

**Q.** And the IC50 (SUMO-activating enzyme [5])?
**A.** The IC50 was 3.77 µM (active).

**Q.** Which CC50 [6] does the source give for `CCOc1ccc2nc(NC(=O)c3ccccn3)sc2c1` here?
**A.** The CC50 was 8.2 µM (active).

**Q.** What about the EC50 [7] of the same compound?
**A.** Its EC50 is 2.98 µM (active).

**Q.** And the AC50 [8]?
**A.** Its AC50 is 2 µM (active).

**Q.** What about the EC50 [9] of the same compound?
**A.** Its EC50 is 5.58 µM (active).

**Q.** And the IC50 (cells)?
**A.** Its IC50 is 0.43 µM (active).

**Q.** And the CC50 [10]?
**A.** The CC50 was 7.54 µM (active).

**Q.** What about the EC50 (Beta-galactosidase) of the same compound?
**A.** The EC50 was > 31.5 µM (inactive).

**Q.** And the AC50 [11]?
**A.** Its AC50 is 5.82 µM (active).

**Q.** And the AC50 [12]?
**A.** The AC50 was 2.42 µM (active).

**Q.** What about the EC50 (Streptococcus) of the same compound?
**A.** The EC50 was 7.36 µM (active).

**Q.** And the IC50 [13]?
**A.** The IC50 was 6.51 µM (active).

**Q.** What about the EC50 [14] of the same compound?
**A.** Its EC50 is 0.407 µM (active).

**Q.** What about the AC50 (INS1) of the same compound?
**A.** Its AC50 is 3.32 µM (active).

**Q.** And the CC50 (Vero)?
**A.** The CC50 was 20.4 µM (active).

**Q.** What about the IC50 [15] of the same compound?
**A.** Its IC50 is > 32 µM.

**Q.** And the CC50 [16]?
**A.** The CC50 was 19.3 µM (active).

**Q.** What about the AC50 [17] of the same compound?
**A.** Its AC50 is 3.99 µM (active).

**Q.** What about the AC50 [18] of the same compound?
**A.** Its AC50 is 8.52 µM (active).

**Q.** Which results are given for `CCOC(=O)c1ccc(NC(=O)c2ccc(CN3CCc4ccccc4C3)cc2)cc1`?
**A.** IC50 [1]: 335 nM (active) and 152 nM (active); IC50 (HEK293 [19]): < 0.312 µM (active); IC50 (HEK293 [2]): > 20 µM (inactive); EC50 (HEK293 [20]): 0.85 µM (active); IC50 (HEK293 [21]): > 20 µM (inactive); IC50 (HEK293 [22]): 1.3 µM (inactive); IC50 (Tumor necrosis factor): 1.4 µM (active) and 140 nM (active)

**Q.** With `COc1ccc(/C=C/C(=O)NC(=S)Nc2ccc(S(N)(=O)=O)cc2)cc1` as the compound, how does the AC50 (HeLa) read?
**A.** Its AC50 is 246 µM (active).

**Q.** With `c1ccc(-c2nnc(-c3ccccn3)[nH]2)nc1` as the compound, how does the IC50 [23] read?
**A.** Its IC50 is > 100 µM (not active).

**Q.** What about the IC50 (cells) of the same compound?
**A.** Its IC50 is 2.02 µM (active).

**Q.** What about the IC50 (Nonstructural protein 1) of the same compound?
**A.** The IC50 was 2.78 µM (active) and 2.89 µM (active).

**Q.** What about the IC50 [3] of the same compound?
**A.** Its IC50 is > 100 µM (inactive).

**Q.** Which IC50 [24] does the source give for `CCN1CC2=C(OC(N)=C(C#N)C2c2cccs2)/C(=C/c2cccs2)C1` (stereo not drawn) here?
**A.** Its IC50 is 5.29 µM (active).
